Where two headings read alike, the source gives them in different places.
Key:
[1] = cited from earlier work
[2] = tested on: K562 cells; assay: SLO-mediated lysis of K562 cells; format: cell-based, human; conditions: K562 pretreated 1 hour with 50 μM, then 900 and 1200 units ml^−1 SLO, 15 minutes at 37° C.
Experimental: (§1) FIG. 4a—K562 cells were pretreated for 1 hour at 37° C. with 50 μM MKT-077 and then treated with 900 and 1200 units ml^−1 SLO or with DTT as control. After 15 minutes at 37° C., cell lysis was measured by Trypan blue inclusion. Results are representative of three independent experiments. FIG. 4b—K562 cells were treated for 1 hour at 37° C. with increased concentrations of A23187 and with 50 μM MKT-077. Cell lysis was then measured by Trypan blue inclusion. Results present the percentage of cell lysis and are representative of three independent experiments.
(§2) MKT-077 has no effect on SLO-mediated lysis and A23187-mediated lysis—The present inventors have further addressed the question of specificity of the effect of MKT-077 on cell death. The effect of MKT-077 on cell death induced by Streptolysin O (SLO), another cytolytic pore-forming protein, was examined. Cells were pretreated with MKT-077 and then treated with several doses of SLO or with dithiothreitol (DTT) as control. Lysis was measured after 15 minutes incubation at 37° C. Results presented in FIG. 4a show no effect of MKT-077 on SLO-mediated lysis. The present inventors have further examined the effect of MKT-077 on cell death induced by the Ca^+2 ionophore A23187. […] Next, the cells were washed and percent cell death was measured.

[3] = tested on: K562 cells; assay: Complement-mediated lysis of K562 cells (Trypan blue inclusion); format: cell-based, human; conditions: for effect on complement-mediated lysis (percent cell lysis): K562 cells pretreated 60 minutes at 37° C. at different concentrations, then anti-K562 antibodies and NHS, Trypan Blue
Experimental: FIG. 1 is a histogram depicting the sensitization of cells to complement mediated lysis by MKT-077. K562 cells were pretreated for 1 hour at 37° C. with increasing concentrations of MKT-077 [or double distilled water (DDW); NT] and then treated with a sublytic dose of anti-K562 antibody (1:14) and complement [Normal human serum (NHS)] or heat-inactivated NHS (HI-NHS). After incubation for 1 hour at 37° C., percent cell lysis was measured with 0.2% Trypan Blue. Results present the percentage of cell lysis and are representative of four independent experiments. P<0.01 between NT group and the other groups.
K562 cells were treated for 60 minute at 37° C. with different concentrations of MKT-077 or Rhodamine123 (Rho123), followed by treatment for another 60 minutes with anti-K562 antibodies and NHS or HI-NHS and the cell lysis was measured by Trypan blue inclusion. Results are representative of three independent experiments. *P<0.05, between cells treated with NHS and MKT-077 and cells treated with NHS without MKT-077.
(§3) Cell lysis and collection of secreted vesicles—Cytotoxicity assay was performed as described before [Reiter, Y. and Z. Fishelson, Complement membrane attack complexes induce in human leukemic cells rapid expression of large proteins (L-CIP). Mol Immunol, 1992. 29(6): p. 771-81]. […] Cell lysis was determined by Trypan blue inclusion. Statistical significance was analyzed by using the two-sided unpaired Student's t-test. […]
MKT-077 sensitizes cells to complement-mediated lysis—Human K562 erythroleukemia cells were pretreated for 60 minutes at 37° C. with MKT-077, at different concentrations, and then the cells were treated for additional 60 minutes at 37° C. with anti-K562 antibodies for 30 minutes on ice and with complement (NHS) or heat-inactivated NHS (HI-NHS) as control. Finally, cells were washed and percent cell lysis was quantified by Trypan Blue inclusion. […]

[4] = target: T1, mortalin binding to C9 (Homo sapiens, UniProt P38646); assay: Binding of mortalin to complement C9 (ELISA); conditions: K562 cell lysate with or without 50 μM MKT-077 on C9-coated wells; P<0.005
T1 construct: incubated with K562 lysates (source for mortalin), with or without MKT-077; endogenous in cells; host or cells: K562 cell lysate
Experimental: FIG. 5 is a histogram depicting the interference of MKT-077 with binding of mortalin to C9. Microtiter plate wells were coated overnight with C9 or BSA (0.5 μg per well) and then incubated with K562 cell lysate (40×10^6 cells ml^−1 lysis buffer) diluted 1:25 with or without 50 μM MKT-077. The wells were washed and treated with anti-mortalin antibody and peroxidase-labeled second antibody, developed with o-phenilenediamine (OPD) and analyzed in an ELISA reader. Results present the quantity of mortalin in each experimental group and are representative of three independent experiments. *,P<0.005 between groups with and without MKT-077.
Binding of mortalin to complement C9—Binding of mortalin to the complement C9 protein was examined by ELISA analysis. In brief, purified human C9 and BSA (0.5 μg per well each) were bound overnight at 4° C. to a 96-well Enzyme Immunoassay (EIA) plate (Corning, N.Y., USA). Diluted cell lysate prepared from 40×10^6 K562 cells as described above was added to each well for 60 minutes at 37° C. After washes, monoclonal mouse anti-mortalin antibody (diluted 1:500) was added for 30 minutes at 37° C. and then peroxidase-conjugated goat anti-mouse IgG was added for 30 minutes at room temperature. Next, o-phenylenediamine (Sigma) was added and the plate was examined in a Spectrafluor Plus plate reader (Tecan, Austria) at 450 nm. […]

[5] = tested on: human tumor cells; conditions: human tumor cells tested; cited from earlier work
[6] = cited from earlier work; remark: listed apart in the source
[7] = tested on: HCT116 colon carcinoma cell line (HCT) p53 +/+ and HCT p53 −/− cells; assay: Complement-mediated lysis of HCT p53 +/+ and HCT p53 −/− cells; format: cell-based; conditions: HCT p53 +/+ versus HCT p53 −/− cells
Experimental: FIG. 3 is a histogram depicting that the effect of MKT-077 on complement-mediated lysis is p53-independent. HCT116 colon carcinoma cell line (HCT) p53 +/+ and HCT p53 −/− cells were pretreated for 1 hour at 37° C. with 50 μM MKT-077 and then treated with a lytic dose of anti-K562 antibody (1:9) and NHS or HI-NHS. After incubation for 1 hour at 37° C., percent cell lysis was measured by Trypan blue inclusion. Results present the percentage of cell lysis and are representative of three independent experiments.
Cell lysis and collection of secreted vesicles—Cytotoxicity assay was performed as described before [Reiter, Y. and Z. Fishelson, Complement membrane attack complexes induce in human leukemic cells rapid expression of large proteins (L-CIP). Mol Immunol, 1992. 29(6): p. 771-81]. Briefly, for a cell lysis assay, cells were incubated with diluted anti-K562 antiserum for 30 minutes at 4° C. and then with complement [NHS or heat-inactivated normal human serum (HI-NHS), 50%] for 60 minutes at 37° C. Cell lysis was determined by Trypan blue inclusion. Statistical significance was analyzed by using the two-sided unpaired Student's t-test. […]
The effect of MKT-077 on complement-mediated lysis is p53-independent—MKT-077 is known to prevent the binding of mortalin to p53 (Wadhwa et al. Cancer Res. 15: 6818-6821, 2000). […] After 60 minutes at 37° C., percent lysis was measured.

[8] = tested on: K562 cells; assay: Release of mortalin and C9 by vesiculation after complement attack (Western blot); format: cell-based, human; conditions: K562 cells pretreated 1 hour with 200 μM or 50 μM, sublytic anti-K562 antibodies and NHS
Experimental: K562 cells pretreated with 50 μM MKT-077 (or with double distilled water) were treated for 10 minutes at 37° C. with a sublytic dose of anti-K562 antibody and NHS or HI-NHS. Then, the cells were washed 4 times with Hank's Balanced Salt Solution (HBSS; Sigma, Rehovot, Israel), incubated for 10 minutes at 37° C. and supernatant were collected. Released proteins were first sedimented at 5,000 g for 15 minutes and then centrifuged at 100,000 g for 30 minutes for vesicles isolation. High-speed supernatant and pellets were analyzed by SDS-PAGE and Western Blotting with anti-mortalin (FIG. 2a) or anti-C9 (FIG. 2b) antibodies. Results are representative of three independent experiments.
as §3
Protein analysis—Protein concentration was analyzed with the BCA Protein Assay Kit (Pierce, Rockford, Ill., USA). […]

[9] = tested on: K562 cells; assay: A23187-mediated lysis of K562 cells; format: cell-based, human; conditions: K562 treated 1 hour at 37° C. with increased concentrations of A23187 and 50 μM MKT-077
Experimental: as §1, §2

[10] = bolus dose (30 minutes i.v. infusion) 126 mg/m^2/week X 4 weeks every 6 weeks

T1 sequence (P38646 47-679): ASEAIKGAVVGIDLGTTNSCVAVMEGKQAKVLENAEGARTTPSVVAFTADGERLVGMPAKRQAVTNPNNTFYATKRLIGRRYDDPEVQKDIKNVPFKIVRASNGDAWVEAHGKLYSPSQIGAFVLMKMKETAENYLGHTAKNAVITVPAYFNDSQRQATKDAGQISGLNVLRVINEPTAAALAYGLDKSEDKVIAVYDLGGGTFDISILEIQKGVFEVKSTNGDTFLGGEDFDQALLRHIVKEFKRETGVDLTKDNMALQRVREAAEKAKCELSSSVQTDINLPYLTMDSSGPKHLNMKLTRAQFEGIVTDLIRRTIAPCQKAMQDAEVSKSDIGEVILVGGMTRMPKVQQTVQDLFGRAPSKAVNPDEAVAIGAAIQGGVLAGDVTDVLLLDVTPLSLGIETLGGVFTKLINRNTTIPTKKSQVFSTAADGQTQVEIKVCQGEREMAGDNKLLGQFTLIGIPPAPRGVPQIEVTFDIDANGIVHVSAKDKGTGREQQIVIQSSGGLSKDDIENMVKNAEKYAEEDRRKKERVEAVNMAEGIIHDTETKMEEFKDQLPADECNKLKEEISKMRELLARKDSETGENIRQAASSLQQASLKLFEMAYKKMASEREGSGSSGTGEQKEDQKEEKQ

CCn1c(=Cc2cccc[n+]2CC)sc(=C2Sc3ccccc3N2C)c1=O.[Cl-] [MKT-077]
toxicity ([1]; cancer patients, continuous i.v. infusion 150 mg/m^2/five days (30 mg/m^2, day, for 5 days)): renal toxicity | toxicity ([1]; five-day infusion (30-50 mg/m^2/day) once every three weeks, chemo-resistant solid tumors): renal toxicity | effect on SLO-mediated lysis [2]: no effect | effect on complement-mediated lysis (percent cell lysis) [3]: significantly enhances killing | mortalin dependence of the effect on complement-mediated lysis ([3]; data not shown): mortalin-dependent | ability of mortalin to bind C9 [4]: significant decrease | IC50 concentrations required in vitro [5]: 0.15-0.5 microgram/ml | associated toxicity [6, 10]: hypomagnesemia (kidney toxicity) | plasma concentrations [6, 10]: 1.2-6.3 microgram/ml | tolerability [6, 10]: well tolerated | toxicity ([6]; single bolus weekly infusion (42 mg/m^2) for 4 weeks every 6 weeks): manageable hypomagnesemia | p53 dependence of the complement sensitization effect [7]: presence or absence of p53 had no effect | release of C9 by vesiculation ([8]; Western blot anti-C9): inhibited | release of mortalin by vesiculation ([8]; Western blot anti-mortalin): inhibited | effect on A23187-mediated lysis [9]: no effect

Rhodamine123
effect on complement-mediated lysis (percent cell lysis) [3]: no effect

— patent publication US20110059070A1, “Combination therapy for tumoral desease treatment” (Ramot At Tel Aviv University Ltd., priority 2006, published 2011)
